Laboratory results reported in ChEMBL document CHEMBL4411306, “High-throughput screening of novel pyruvate dehydrogenase kinases inhibitors and biological evaluation of their in vitro and in vivo antiproliferative activity” (Eur J Med Chem, 2019).
Blank lines part the entries; values can stand above or below the compound they belong to. Active and inactive are the calls of the source. The rule behind the calls is not given here.

Tests used:
[1] = molecular target: T1, [Pyruvate dehydrogenase (acetyl-transferring)] kinase isozyme 2, mitochondrial (Homo sapiens, UniProt Q15119); test: Inhibition of recombinant human His6-tagged N-terminal PDHK2 (A8 to T399 residues) expressed in baculovirus expression system using PDC as substrate incubated for 10 mins followed by ATP addition measured at 12 secs interval for 20 mins
[2] = Inhibition of porcine PDK assessed as activation of pyruvate dehydrogenase complex measured after 3 mins; parameters: species or system Sus scrofa
NCI-H1975 [3] = test: Inhibition of PDK in human NCI-H1975 cells assessed as reduction in PDH phosphorylation at 10 uM after 12 hrs by Western blot analysis; format: cell-based
[4] = molecular target: T2, [Pyruvate dehydrogenase (acetyl-transferring)] kinase isozyme 1, mitochondrial (Homo sapiens, UniProt Q15118); test: Inhibition of recombinant human His-tagged PDK1 expressed in Escherichia coli using PDH E1 as substrate measured after 30 mins by Kinase-Glo luminescence assay
T2 sequence (Q15118 whole entry): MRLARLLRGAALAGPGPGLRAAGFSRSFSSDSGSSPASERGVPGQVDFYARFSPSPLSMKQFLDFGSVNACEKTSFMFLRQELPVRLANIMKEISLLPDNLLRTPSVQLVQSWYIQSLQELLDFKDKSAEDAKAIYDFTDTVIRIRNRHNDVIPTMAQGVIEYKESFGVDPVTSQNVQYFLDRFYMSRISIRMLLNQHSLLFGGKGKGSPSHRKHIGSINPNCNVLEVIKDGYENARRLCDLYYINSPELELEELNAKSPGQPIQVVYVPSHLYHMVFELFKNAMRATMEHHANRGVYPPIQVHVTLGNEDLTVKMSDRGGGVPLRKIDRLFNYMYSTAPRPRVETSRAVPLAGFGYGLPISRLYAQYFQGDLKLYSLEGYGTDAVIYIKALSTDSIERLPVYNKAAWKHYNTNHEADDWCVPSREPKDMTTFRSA

[5] = molecular target: T1, [Pyruvate dehydrogenase (acetyl-transferring)] kinase isozyme 2, mitochondrial; test: Inhibition of recombinant human His-tagged PDK2 expressed in Escherichia coli using PDH E1 as substrate measured after 30 mins by Kinase-Glo luminescence assay
[6] = molecular target: [Pyruvate dehydrogenase (acetyl-transferring)] kinase isozyme 3, mitochondrial (Homo sapiens, UniProt Q15120); test: Inhibition of recombinant human His-tagged PDK3 expressed in Escherichia coli using PDH E1 as substrate measured after 30 mins by Kinase-Glo luminescence assay
Chain of [Pyruvate dehydrogenase (acetyl-transferring)] kinase isozyme 3, mitochondrial (Q15120 whole entry): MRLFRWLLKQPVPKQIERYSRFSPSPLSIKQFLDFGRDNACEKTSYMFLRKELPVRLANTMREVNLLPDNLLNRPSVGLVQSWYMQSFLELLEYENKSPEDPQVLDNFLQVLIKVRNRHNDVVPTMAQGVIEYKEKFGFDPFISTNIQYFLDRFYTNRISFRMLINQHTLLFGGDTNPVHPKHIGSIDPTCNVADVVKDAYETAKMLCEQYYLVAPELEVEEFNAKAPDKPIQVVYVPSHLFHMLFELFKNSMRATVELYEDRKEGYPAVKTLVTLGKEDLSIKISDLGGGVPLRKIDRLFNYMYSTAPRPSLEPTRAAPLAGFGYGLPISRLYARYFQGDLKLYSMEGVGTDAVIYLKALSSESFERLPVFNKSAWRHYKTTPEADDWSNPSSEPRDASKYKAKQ

[7] = molecular target: [Pyruvate dehydrogenase (acetyl-transferring)] kinase isozyme 4, mitochondrial (Homo sapiens, UniProt Q16654); test: Inhibition of recombinant human His-tagged PDK4 expressed in Escherichia coli using PDH E1 as substrate measured after 30 mins by Kinase-Glo luminescence assay
Chain of [Pyruvate dehydrogenase (acetyl-transferring)] kinase isozyme 4, mitochondrial (Q16654 whole entry): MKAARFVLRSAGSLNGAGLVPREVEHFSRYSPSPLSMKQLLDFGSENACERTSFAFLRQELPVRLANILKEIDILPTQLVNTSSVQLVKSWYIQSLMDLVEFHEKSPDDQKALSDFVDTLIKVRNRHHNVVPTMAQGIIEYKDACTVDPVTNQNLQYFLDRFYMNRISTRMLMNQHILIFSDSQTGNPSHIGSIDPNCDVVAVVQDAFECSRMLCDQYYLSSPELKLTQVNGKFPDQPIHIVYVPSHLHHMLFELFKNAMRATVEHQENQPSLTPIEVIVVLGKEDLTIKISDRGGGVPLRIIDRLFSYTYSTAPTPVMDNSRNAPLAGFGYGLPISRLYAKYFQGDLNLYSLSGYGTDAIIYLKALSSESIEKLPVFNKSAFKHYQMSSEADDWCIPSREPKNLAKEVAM

Heat shock protein HSP90 = Heat shock protein HSP90 (Homo sapiens, UniProt P07900+P08238); test: Inhibition of human HSP90 measured after 30 mins by fluorescence polarization assay; format: protein assay
[8] = molecular target: T2, [Pyruvate dehydrogenase (acetyl-transferring)] kinase isozyme 1, mitochondrial; test: Binding affinity to recombinant human His-tagged PDK1 expressed in Escherichia coli by isothermal calorimetry
A549 = test: Antiproliferative activity against human A549 cells assessed as reduction in cell viability after 72 hrs by MTT assay; format: functional
NCI-H1650 = test: Antiproliferative activity against human NCI-H1650 cells assessed as reduction in cell viability after 72 hrs by MTT assay; format: functional
NCI-H1975 [9] = test: Antiproliferative activity against human NCI-H1975 cells assessed as reduction in cell viability after 72 hrs by MTT assay; format: functional
MCF7 = test: Antiproliferative activity against human MCF7 cells assessed as reduction in cell viability after 72 hrs by MTT assay; format: functional
A-375 = test: Antiproliferative activity against human A375 cells assessed as reduction in cell viability after 72 hrs by MTT assay; format: functional
HepG2 = test: Antiproliferative activity against human HepG2 cells assessed as reduction in cell viability after 72 hrs by MTT assay; format: functional
HCT-116 = test: Antiproliferative activity against human HCT116 cells assessed as reduction in cell viability after 72 hrs by MTT assay; format: functional
[10] = Antiproliferative activity against human BEAS2B cells assessed as reduction in cell viability after 72 hrs by MTT assay; format: cell-based; details: BEAS-2B cells, read-out: GC50
[11] = Permeability across human Caco2 cells by liquid scintillation counting method; format: ADME, cell-based; details: caco-2
NCI-H1975 [12] = test: Induction of apoptosis in human NCI-H1975 cells assessed as live cells at 0.5 uM after 12 hrs by Annexin V-FITC/propidium iodide staining based flow cytometry (reference value: 92.7%); format: functional
NCI-H1975 [13] = test: Induction of apoptosis in human NCI-H1975 cells assessed as early apoptotic cells at 0.5 uM after 12 hrs by Annexin V-FITC/propidium iodide staining based flow cytometry (reference value: 1.8%); format: functional
NCI-H1975 [14] = test: Induction of apoptosis in human NCI-H1975 cells assessed as late apoptotic cells at 0.5 uM after 12 hrs by Annexin V-FITC/propidium iodide staining based flow cytometry (reference value: 3.7%); format: functional
NCI-H1975 [15] = test: Induction of apoptosis in human NCI-H1975 cells assessed as necrotic cells at 0.5 uM after 12 hrs by Annexin V-FITC/propidium iodide staining based flow cytometry (reference value: 1.8%); format: functional
NCI-H1975 [16] = test: Induction of apoptosis in human NCI-H1975 cells assessed as live cells at 2 uM after 12 hrs by Annexin V-FITC/propidium iodide staining based flow cytometry (reference value: 92.7%); format: functional
NCI-H1975 [17] = test: Induction of apoptosis in human NCI-H1975 cells assessed as early apoptotic cells at 2 uM after 12 hrs by Annexin V-FITC/propidium iodide staining based flow cytometry (reference value: 1.8%); format: functional
NCI-H1975 [18] = test: Induction of apoptosis in human NCI-H1975 cells assessed as late apoptotic cells at 2 uM after 12 hrs by Annexin V-FITC/propidium iodide staining based flow cytometry (reference value: 3.7%); format: functional
NCI-H1975 [19] = test: Induction of apoptosis in human NCI-H1975 cells assessed as necrotic cells at 2 uM after 12 hrs by Annexin V-FITC/propidium iodide staining based flow cytometry (reference value: 1.8%); format: functional
NCI-H1975 [20] = test: Induction of apoptosis in human NCI-H1975 cells assessed as live cells at 4 uM after 12 hrs by Annexin V-FITC/propidium iodide staining based flow cytometry (reference value: 92.7%); format: functional
NCI-H1975 [21] = test: Induction of apoptosis in human NCI-H1975 cells assessed as early apoptotic cells at 4 uM after 12 hrs by Annexin V-FITC/propidium iodide staining based flow cytometry (reference value: 1.8%); format: functional
NCI-H1975 [22] = test: Induction of apoptosis in human NCI-H1975 cells assessed as late apoptotic cells at 4 uM after 12 hrs by Annexin V-FITC/propidium iodide staining based flow cytometry (reference value: 3.7%); format: functional
NCI-H1975 [23] = test: Induction of apoptosis in human NCI-H1975 cells assessed as necrotic cells at 4 uM after 12 hrs by Annexin V-FITC/propidium iodide staining based flow cytometry (reference value: 1.8%); format: functional
NCI-H1975 [24] = test: Induction of apoptosis in human NCI-H1975 cells assessed as live cells at 10 uM after 12 hrs by Annexin V-FITC/propidium iodide staining based flow cytometry (reference value: 92.7%); format: functional
NCI-H1975 [25] = test: Induction of apoptosis in human NCI-H1975 cells assessed as early apoptotic cells at 10 uM after 12 hrs by Annexin V-FITC/propidium iodide staining based flow cytometry (reference value: 1.8%); format: functional
NCI-H1975 [26] = test: Induction of apoptosis in human NCI-H1975 cells assessed as late apoptotic cells at 10 uM after 12 hrs by Annexin V-FITC/propidium iodide staining based flow cytometry (reference value: 3.7%); format: functional
NCI-H1975 [27] = test: Induction of apoptosis in human NCI-H1975 cells assessed as necrotic cells at 10 uM after 12 hrs by Annexin V-FITC/propidium iodide staining based flow cytometry (reference value: 1.8%); format: functional
NCI-H1975 [28] = test: Induction of apoptosis in human NCI-H1975 cells after 12 hrs by Annexin V-FITC/propidium iodide staining based flow cytometry; format: functional, cell-based
NCI-H1975 [29] = test: Antitumor activity against human NCI-H1975 cells xenografted in nude mouse assessed as tumor growth inhibition administered orally once daily for 21 days; format: functional, cell-based
[30] = Toxicity in nude mouse xenografted with human NCI-H1975 cells assessed as effect on body weight at 10 to 20 mg/kg, po administered once daily for 21 days measured twice weekly during compound dosing; format: organism-based; details: in vivo, 504 h
NCI-H1975 [31] = test: Antitumor activity against human NCI-H1975 cells xenografted in nude mouse assessed as reduction in tumor weight administered orally once daily for 21 days; format: functional, cell-based
Mus musculus = test: In-vivo of inhibition of PDH phosphorylation in tumor of nude mouse xenografted with human NCI-H1975 cells at 10 to 20 mg/kg, po administered once daily for 21 days measured post last dose by Western blot analysis; format: functional, organism-based
[32] = molecular target: T2, [Pyruvate dehydrogenase (acetyl-transferring)] kinase isozyme 1, mitochondrial; test: Inhibition of PDK1 in human NCI-H1975 cells assessed as switch of pyruvate metabolism from lactate production to oxidative phosphorylation by measuring decrease in extracellular acidification rate at 1 to 10 uM measured after 4 hrs by XFe24 extracellular flux analyzer based assay; format: cell-based
[33] = molecular target: T2, [Pyruvate dehydrogenase (acetyl-transferring)] kinase isozyme 1, mitochondrial; test: Inhibition of PDK1 in human NCI-H1975 cells assessed as switch of pyruvate metabolism from lactate production to oxidative phosphorylation by measuring increase in oxygen consumption rates at 1 to 10 uM measured after 4 hrs by XFe24 extracellular flux analyzer based assay; format: cell-based
[34] = molecular target: T2, [Pyruvate dehydrogenase (acetyl-transferring)] kinase isozyme 1, mitochondrial; test: Inhibition of PDK1 in human NCI-H1975 cells assessed as switch of pyruvate metabolism from lactate production to oxidative phosphorylation by measuring by measuring reduction in lactate formation at 10 uM measured after 4 hrs; format: cell-based
[35] = molecular target: T2, [Pyruvate dehydrogenase (acetyl-transferring)] kinase isozyme 1, mitochondrial; test: Inhibition of PDK1 in human NCI-H1975 cells assessed as switch of pyruvate metabolism from lactate production to oxidative phosphorylation by measuring increase in ROS production at high concentration after 4 hrs by DCFH-DA dye based assay; format: cell-based

IC50 [1]: 2000 nM
SMILES: CC(C)c1ccc(COc2ccc(CC(=O)NCCN)cc2Cl)cc1

EC50 [2]: 340 nM
IC50 [4]: 290 nM
IC50 [5]: 3800 nM
IC50 [6]: 5700 nM
IC50 [7]: 2500 nM
IC50 (Heat shock protein HSP90): 780 nM
Kd [8]: 870 nM
Papp [11]: 8.51 ×10⁻⁶ cm/s
inhibition [32]: Active
inhibition [33]: Active
inhibition [34]: Active
inhibition [35]: Active
SMILES: Cc1cccc(NC(=O)CSc2n[nH]c(-c3ccccc3O)n2)c1C
reduction in PDH phosphorylation (qualitative) (NCI-H1975 [3]): Active
Activity (A549): Dose-dependent effect
GC50 (A549): 7900 nM
Activity (NCI-H1650): Dose-dependent effect
GC50 (NCI-H1650): 3100 nM
Activity (NCI-H1975 [9]): Dose-dependent effect
GC50 (NCI-H1975 [9]): 2300 nM
Activity (MCF7): Dose-dependent effect
GC50 (MCF7): 9500 nM
Activity (A-375): Dose-dependent effect
GC50 (A-375): 6400 nM
Activity (HepG2): Dose-dependent effect
GC50 (HepG2): 5200 nM
Activity (HCT-116): Dose-dependent effect
GC50 (HCT-116): 12700 nM
GI50 at 72 h [10]: > 20000 nM
Activity (NCI-H1975 [12]): 92.3%
Activity (NCI-H1975 [13]): 2%
Activity (NCI-H1975 [14]): 4.8%
Activity (NCI-H1975 [15]): 0.9%
Activity (NCI-H1975 [16]): 90.3%
Activity (NCI-H1975 [17]): 3.1%
Activity (NCI-H1975 [18]): 5%
Activity (NCI-H1975 [19]): 1.6%
Activity (NCI-H1975 [20]): 85.5%
Activity (NCI-H1975 [21]): 2.7%
Activity (NCI-H1975 [22]): 10.6%
Activity (NCI-H1975 [23]): 1.2%
Activity (NCI-H1975 [24]): 73.4%
Activity (NCI-H1975 [25]): 13.1%
Activity (NCI-H1975 [26]): 11.1%
Activity (NCI-H1975 [27]): 2.4%
Activity (NCI-H1975 [28]): Dose-dependent effect
TGI (NCI-H1975 [29]): Dose-dependent effect
Activity [30]: Non-Toxic
Activity (NCI-H1975 [31]): Dose-dependent effect
inhibition (Mus musculus): Active
